In the NIST ThermoML archive (doi:10.1016/j.fluid.2015.03.027) one finds mass density and refractive index data, which are given here for five compounds.

Each structure is given as a SMILES string. ± gives the expanded uncertainty stated by the source.

For data set [1] the following is noted: 298.15 K; 101.33 kPa; Liquid; Vibrating tube method.
A short description of data set [2]: refractive index (Na D-line) (dimensionless). Particulars: 298.15 K; 101.33 kPa; Liquid; Standard Abbe refractometry.

One may read the mass density as the mass of a sample divided by its volume. For `CCCC[n+]1ccc(C)cc1.N#CC(=C=[N-])C#N` [1-butyl-4-methylpyridinium tricyanomethanide], the mass density in data set [1] was found to be 1036.68 ± 1.3 kg/m3.

Usually refractive index stands for a measure of how strongly the sample bends light. `CC(C)=O` [acetone]: the mass density in data set [1] came to 785.23 ± 1 kg/m3. In addition, the refractive index in data set [2] is listed as 1.356 ± 0.0007.

With `CCCCCCC` [heptane], in data set [1], the mass density turned out to be 679.48 ± 1 kg/m3. Also, in data set [2], the refractive index stood at 1.38519 ± 0.00073.

On to `CCCO` [propan-1-ol], for which the mass density in data set [1] turned out to be 799.52 ± 1 kg/m3. The refractive index in data set [2] turned out to be 1.38375 ± 0.00072.

Regarding `c1ccncc1` [pyridine], the mass density in data set [1] is recorded as 982.85 ± 1 kg/m3. In data set [2], the refractive index stood at 1.5094 ± 0.00072.
